Measured values published in US20260308172A1, “TRICYCLIC COMPOUNDS FOR TREATMENT OF BACTERIAL INFECTIONS” (priority 2023, published 2026).
≈ marks a conversion by molar mass, not a printed value.

How the values were obtained:
[1] = test system: Escherichia coli ATCC 25922; assay: Minimal Inhibitory Concentration (MIC) assay, Escherichia coli ATCC 25922; assay type: cell-based; settings: ATCC25922, 20 h, read-out: MIC Escherichia coli ATCC25922
Experimental: (§1) The antibacterial activity of the compounds of the present invention was evaluated against the commonly used quality control strain Escherichia coli ATCC 25922 and the rifampin-resistant mutant strain Klebsiella pneumonia ATCC 43816. Both were originally derived from human clinical samples and are available from ATCC (American Type Culture Collection). The in vitro potency of compounds to inhibit Escherichia coli (ATCC 25922) and Klebsiella pneumonia (ATCC 43816) growth was assessed by the MIC (Minimal Inhibitory Concentration) broth dilution method. Specifically compound dilutions were prepared from 10 mM DMSO stock solutions as follows: i) serial 2-fold dilution in 20 μL DMSO were prepared in a master plate (Greiner, Cat No: 651201), ii) 180 μL sterile distilled water was added to each aliquot and iii) 10 μL diluted compounds were transferred into a new assay plate (Costar, 3599).
(§2) Vials of each test microorganisms were maintained frozen in the vapor phase of a liquid nitrogen freezer. Single-use frozen vials of the two strains Escherichia coli ATCC 25922 (KWIKSTIK, 0335K) and Klebsiella pneumonia ATCC 43816, with predetermined CFU/mL, were taken out from the freezer, thawed at room temperature, and diluted in Cation-Adjusted Mueller Hinton Broth (CAMHB) to achieve a final inoculum of 5×10^5 CFU/mL. 90 μL bacteria containing broth was dispensed to the assay plate containing the pre-dispensed compound dilutions and mixed by pipetting 5 times.
(§3) Then the assay plates were incubated for 20 hours at 35° C. in ambient air. Following incubation, the MIC (μg/mL), the lowest concentration of drug that inhibits visible growth of the microorganism was read with the help of a magnification mirror and recorded.

[2] = test system: Klebsiella pneumonia ATCC 43816; assay: Minimal Inhibitory Concentration (MIC) assay, Klebsiella pneumonia ATCC 43816; assay type: cell-based; settings: Klebsiella pneumoniae, ATCC43816, 20 h, read-out: MIC Klebsiella pneumoniae ATCC43816
Experimental: as §1, §2, §3

SMILES	MIC [1] [µg/mL]	MIC [2] [µg/mL]
NC[C@@H]1OC(=O)N2c3ccc(S(=O)(=O)N4CCN(c5cc(S(=O)(=O)c6ccc(N)cc6)cc(Cl)n5)CC4)cc3OC[C@@H]12 (relative stereo) [Example 004]	0.52 (≈ 0.819 µM)	0.26 (≈ 0.409 µM)
Cc1cc(C(F)(F)F)nc(N2CCN(S(=O)(=O)c3ccc4c(c3)OCC3CCC(=O)N43)CC2)n1 (stereo not drawn) [Example 011, 7-[4-[4-Methyl-6-(trifluoromethyl)pyrimidin-2-yl]piperazin-1-yl]sulfonyl-2,3,3a,4-tetrahydropyrrolo[2,1-c][1,4]benzoxazin-1-one]	1.4 (≈ 2.81 µM)	2.87 (≈ 5.77 µM)
C[N@@+]1(CC(N)=O)CCC[C@H]1C(=O)N[C@H]1CC[C@H](C(F)(F)c2cc(Cl)nc(N3CCN(S(=O)(=O)c4ccc5c(c4)OC[C@@H]4[C@H](CO)OC(=O)N54)CC3)c2)CC1 [Example 058, (1S,2S)—N-[4-[[2-[4-[[(3R,3aR)-3-(hydroxymethyl)-1-oxo-3a,4-dihydro-3H-oxazolo[4,3-c][1,4]benzoxazin-7-yl]sulfonyl]piperazin-1-yl]-6-chloro-4-pyridyl]-difluoro-methyl]cyclohexyl]-1-(2-amino-2-oxo-ethyl)-1-methyl-pyrrolidin-1-ium-2-carboxamide;chloride]	1.3	1.32
NC[C@H]1OC(=O)N2c3ccc(S(=O)(=O)N4CCN(c5cc(S(=O)(=O)C6CC6)cc(Cl)n5)CC4)cc3OC[C@@H]12 (relative stereo) [Example 005]	0.97 (≈ 1.66 µM)	1 (≈ 1.71 µM)
O=C1O[C@@H](CO)[C@H]2COc3cc(S(=O)(=O)N4CCN(c5cc(C(F)(F)C67CNCC6C7)cc(Cl)n5)CC4)ccc3N12 (stereo partly drawn) [Example 036, (3R,3aR)-7-[4-[4-[3-azabicyclo[3.1.0]hexan-1-yl(difluoro)methyl]-6-chloro-2-pyridyl]piperazin-1-yl]sulfonyl-3-(hydroxymethyl)-3a,4-dihydro-3H-oxazolo[4,3-c][1,4]benzoxazin-1-one]	0.14 (≈ 0.229 µM)	0.14 (≈ 0.229 µM)
O=C1CCC2COc3cc(S(=O)(=O)N4CCN(c5cc(C(F)(F)F)cc(Cl)n5)CC4)ccc3N12 (stereo not drawn) [Example 012, 7-[4-[6-Chloro-4-(trifluoromethyl)-2-pyridyl]piperazin-1-yl]sulfonyl-2,3,3a,4-tetrahydropyrrolo[2,1-c][1,4]benzoxazin-1-one]	0.61 (≈ 1.18 µM)	
NC1CC(=O)N2c3ccc(S(=O)(=O)N4CCN(c5cc(C(F)(F)[C@H]6CNCCO6)cc(Cl)n5)CC4)cc3OCC12 (stereo partly drawn) [Example 031, 3-Amino-7-[4-[6-chloro-4-[difluoro-[(2R)-morpholin-2-yl]methyl]-2-pyridyl]piperazin-1-yl]sulfonyl-2,3,3a,4-tetrahydropyrrolo[2,1-c][1,4]benzoxazin-1-one]	0.25 (≈ 0.417 µM)	1.01 (≈ 1.68 µM)
NC[C@@H]1OC(=O)N2c3ccc(S(=O)(=O)N4CCN(c5cc(C(F)(F)[C@@H]6COCCO6)cc(Cl)n5)CC4)cc3OC[C@H]12 [Example 022, (3S,3aR)-3-(aminomethyl)-7-[4-[6-chloro-4-[[(2S)-1,4-dioxan-2-yl]-difluoro-methyl]-2-pyridyl]piperazin-1-yl]sulfonyl-3a,4-dihydro-3H-oxazolo[4,3-c][1,4]benzoxazin-1-one]	0.44 (≈ 0.714 µM)	0.3 (≈ 0.487 µM)
Cc1cc(C(F)(F)F)nc(N2CCN(S(=O)(=O)c3ccc4c(c3)OC[C@@H]3[C@H](CO)OC(=O)N43)CC2)n1 [Example 015, (3R,3aR)-3-(hydroxymethyl)-7-[4-[4-methyl-6-(trifluoromethyl)pyrimidin-2-yl]piperazin-1-yl]sulfonyl-3a,4-dihydro-3H-oxazolo[4,3-c][1,4]benzoxazin-1-one]	0.5 (≈ 0.944 µM)	0.76 (≈ 1.44 µM)
Nc1ccc(S(=O)(=O)c2cc(Br)nc(N3CCN(S(=O)(=O)c4ccc5c(c4)OCC4CCC(=O)N54)CC3)c2)cc1 (stereo not drawn) [Example 014, 7-[4-[4-(4-Aminophenyl)sulfonyl-6-bromo-2-pyridyl]piperazin-1-yl]sulfonyl-2,3,3a,4-tetrahydropyrrolo[2,1-c][1,4]benzoxazin-1-one]	0.51 (≈ 0.786 µM)	0.51 (≈ 0.786 µM)
O=C1CC(NC2CCNCC2)C2COc3cc(S(=O)(=O)N4CCN(c5cc(C(F)(F)[C@@H]6COCCO6)cc(Cl)n5)CC4)ccc3N12 (mixture of isomers) [Example 027, 7-[4-[6-Chloro-4-[difluoro-[rac-(2S)-1,4-dioxan-2-yl]methyl]-2-pyridyl]piperazin-1-yl]sulfonyl-3-(4-piperidylamino)-2,3,3a,4-tetrahydropyrrolo[2,1-c][1,4]benzoxazin-1-one]	2.1 (≈ 3.07 µM)	2.14 (≈ 3.13 µM)
Cc1cc(C(F)(F)c2cc(Cl)nc(N3CCN(S(=O)(=O)c4ccc5c(c4)OC[C@H]4[C@H](CN)OC(=O)N54)CC3)c2)ccn1 (relative stereo) [Example 019]	0.29 (≈ 0.467 µM)	0.28 (≈ 0.451 µM)
O=C1O[C@H](CO)[C@@H]2COc3cc(S(=O)(=O)N4CCN(c5cc(C(F)(F)[C@H]6CNCCO6)cc(Cl)n5)CC4)ccc3N12 (stereo in doubt) [Example 032, cis-7-[4-[6-chloro-4-[difluoro-[(2R)-morpholin-2-yl]methyl]-2-pyridyl]piperazin-1-yl]sulfonyl-3-(hydroxymethyl)-3a,4-dihydro-3H-oxazolo[4,3-c][1,4]benzoxazin-1-one]	0.24 (≈ 0.39 µM)	0.241 (≈ 0.391 µM)
O=C1O[C@@H](CO)[C@@H]2COc3cc(S(=O)(=O)N4CCN(c5cc(C(F)(F)[C@@H]6CNCCO6)cc(Cl)n5)CC4)ccc3N12 (relative stereo) [Example 050, trans-7-[4-[6-chloro-4-[difluoro-[(2S)-morpholin-2-yl]methyl]-2-pyridyl]piperazin-1-yl]sulfonyl-3-(hydroxymethyl)-3a,4-dihydro-3H-oxazolo[4,3-c][1,4]benzoxazin-1-one]	0.48 (≈ 0.779 µM)	0.48 (≈ 0.779 µM)
CC1COC(C(F)(F)c2cc(Cl)nc(N3CCN(S(=O)(=O)c4ccc5c(c4)OC[C@H]4[C@H](CO)OC(=O)N54)CC3)c2)CN1 (stereo partly drawn) [Example 040, (3R,3aS)-7-[4-[6-chloro-4-[difluoro-(5-methylmorpholin-2-yl)methyl]-2-pyridyl]piperazin-1-yl]sulfonyl-3-(hydroxymethyl)-3a,4-dihydro-3H-oxazolo[4,3-c][1,4]benzoxazin-1-one]	0.29 (≈ 0.46 µM)	0.29 (≈ 0.46 µM)
NC(=O)CN1CCC(C(F)(F)c2cc(Cl)nc(N3CCN(S(=O)(=O)c4ccc5c(c4)OC[C@@H]4[C@H](CO)OC(=O)N54)CC3)c2)CC1 [Example 056, 2-[4-[[2-[4-[[(3R,3aR)-3-(hydroxymethyl)-1-oxo-3a,4-dihydro-3H-oxazolo[4,3-c][1,4]benzoxazin-7-yl]sulfonyl]piperazin-1-yl]-6-chloro-4-pyridyl]-difluoro-methyl]-1-piperidyl]acetamide]	0.31 (≈ 0.462 µM)	0.23 (≈ 0.343 µM)
CN1CC=C(C(F)(F)c2cc(Cl)nc(N3CCN(S(=O)(=O)c4ccc5c(c4)OC[C@H]4[C@@H](CN)OC(=O)N54)CC3)c2)CC1 (stereo in doubt) [Example 020, cis-3-(aminomethyl)-7-[4-[6-chloro-4-[difluoro-(1-methyl-3,6-dihydro-2H-pyridin-4-yl)methyl]-2-pyridyl]piperazin-1-yl]sulfonyl-3a,4-dihydro-3H-oxazolo[4,3-c][1,4]benzoxazin-1-one]	0.29 (≈ 0.464 µM)	0.29 (≈ 0.464 µM)
